Measurements published in patent US7795458B2, “Salt of (2S, 3S)-3-[[(1S)-1-isobutoxymethyl-3-methylbutyl] carbamoyl] oxirane-2-carboxylic acid” (Nippon Chemiphar Co., Ltd, priority 2003, dated 2010).

Columns and labels:
[1] = Comparative stability test (solid kept at 80° C. for three days, light-shaded and airtight; remaining substance by HPLC); assay type: physicochemical; settings: for Remaining ratio(%) after 3 days at 80° C.: 10 mg solid sample, thermostat at 80° C., three days, light-shaded and airtight, HPLC; for storage stability (result in words): left at 80° C. for three days
Procedure: The crystalline Na salt of the invention (described in Example 9) was subjected to a comparative stability test. In the test, the Na salt was left at 80° C. for three days together with both the substance obtained by condensing the solution to dryness and the product collected by filtration and left at room temperature after recrystallization.
The crystalline K salt of the invention (described in Example 11) was subjected to a stability test in which the K salt was left at 80° C. for three days.
mobile phase: a mixture of 0.1 mol/L sodium dihydrogen phosphate reagent (pH: 3.0)/acetonitrile (5:2),
flow rate; controlled so that the retention time of (2S,3S)-3-[[(1S)-1-isobutoxymethyl-3-methylbutyl]-carbamoyl]oxirane-2-carboxylic acid would be approx. 13 minutes, and
As a sample, 10 mg of sodium or potassium (2S,3S)-3-[[(1S)-1-isobutoxymethyl-3-methylbutyl]carbamoyl]oxirane-2-carboxylate was weighed and placed in a test tube. After the sample was kept in a thermostat at 80° C. for three days under a light-shaded and airtight condition, the amount of remaining substance was measured by HPLC.
The same as those in Example 14.

cathepsin = settings: background statement; cited from earlier work

Row | SMILES | Remaining ratio(%) after 3 days at 80° C. [1] | storage stability (result in words) [1] | cathepsin-inhibitory action (cathepsin)
1 | CC(C)COC[C@H](CC(C)C)NC(=O)[C@H]1O[C@@H]1C(=O)[O-].[K+] [K salt (obtained in Example 11), potassium (2S,3S)-3-[[(1S)-1-isobutoxymethyl-3-methylbutyl]carbamoyl]oxirane-2-carboxylate] | 99.9% | excellent in storage stability | 
2 | CC(C)COC[C@H](CC(C)C)NC(=O)[C@H]1O[C@@H]1C(=O)[O-].[Na+] [Compound A, sodium (2S,3S)-3-[[(1S)-1-isobutoxymethyl-3-methylbutyl]carbamoyl]-oxirane-2-carboxylate] |  |  | shows a cathepsin-inhibitory action
3 | CC(C)COC[C@H](CC(C)C)NC(=O)[C@H]1O[C@@H]1C(=O)[O-].[Na+] [Na salt (obtained in Example 9), sodium (2S,3S)-3-[[(1S)-1-isobutoxymethyl-3-methylbutyl]carbamoyl]oxirane-2-carboxylate] | 95-98% | superior to the substances for comparison in storage stability | 
4 | CC(C)COC[C@H](CC(C)C)NC(=O)[C@H]1O[C@@H]1C(=O)[O-].[Na+] [Na salt (obtained through recrystallization and drying in ai] [sodium (2S,3S)-3-[[(1S)-1-isobutoxymethyl-3-methylbutyl]carbamoyl]oxirane-2-carboxylate, reference compound] | 38-77% |  | 
5 | CC(C)COC[C@H](CC(C)C)NC(=O)[C@H]1O[C@@H]1C(=O)[O-].[Na+] [Na salt (obtained according to the conventional process)] [sodium (2S,3S)-3-[[(1S)-1-isobutoxymethyl-3-methylbutyl]carbamoyl]oxirane-2-carboxylate, reference compound] | 13-77% |  | 
